According to PMC8633346, “Engineering of a fluorescent chemogenetic reporter with tunable color for advanced live-cell imaging” (Nature Communications, 2021):

Target: T1, pFAST (Halorhodospira halophila, UniProt P16113, K17N/G21E/G25R/A30V/Q41L/C69G/S72T/V83A/Y94W/F96I/D97P/Y98T/Q99S/M100R/T101G/M109L/S117R)
T1 construct: gene pyp; engineered PYP variant; changes relative to FAST: K17N, G21E, G25R, A30V, Q41L, S72T, V83A, M95T, M109L, S117R (M95T restores T95 of PYP); N-terminal His-tag, E. coli Rosetta (DE3) pLys, Ni-NTA; FAST 14 kDa
T1 sequence (P16113 1-125 K17N/G21E/G25R/A30V/Q41L/C69G/S72T/V83A/Y94W/F96I/D97P/Y98T/Q99S/M100R/T101G/M109L/S117R): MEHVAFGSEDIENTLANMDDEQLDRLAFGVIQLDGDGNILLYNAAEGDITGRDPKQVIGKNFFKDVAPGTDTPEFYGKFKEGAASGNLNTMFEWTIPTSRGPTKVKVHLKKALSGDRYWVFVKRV
Test: fluorescence titration, one-site fit
Assay type: binding
Settings: PBS pH 7.4

In the case of Cc1cc(C=C2SC(=O)NC2=O)ccc1O [HBT-3M, (4-hydroxy-3-methylbenzylidene)thiazolidine-2,4-dione], the KD is reported as “KD) values of their assembly with pFAST are indicated into brackets”.

Target: T2, pFAST (Halorhodospira halophila, UniProt P16113, A30V/C69G/D97P/F96I/G21E/G25R/K17N/M100R/M109L/Q41L/Q99S/S117R/S72T/T101G/V83A/Y94W/Y98T)
T2 construct: gene pyp; engineered PYP variant; changes relative to FAST: K17N, G21E, G25R, A30V, Q41L, S72T, V83A, M95T, M109L, S117R (M95T restores T95 of PYP); N-terminal His-tag, E. coli Rosetta (DE3) pLys, Ni-NTA; FAST 14 kDa
T2 sequence (P16113 1-125 K17N/G21E/G25R/A30V/Q41L/C69G/S72T/V83A/Y94W/F96I/D97P/Y98T/Q99S/M100R/T101G/M109L/S117R): T1 sequence (P16113 1-125 K17N/G21E/G25R/A30V/Q41L/C69G/S72T/V83A/Y94W/F96I/D97P/Y98T/Q99S/M100R/T101G/M109L/S117R)
Test: fluorescence titration, one-site fit
Settings: not given

In order of falling Kd:
1. Cc1cc(C=C2OC(=O)NC2=O)cc(C)c1O [HBO-3,5DM, (4-hydroxy-3,5-dimethylbenzylidene)oxazolidine-2,4-dione]  2400 nM
2. COc1cc(C=C2SC(=N)NC2=O)cc(OC)c1O [HBP-3,5DOM, (4-hydroxy-3,5-dimethoxybenzylidene)-2-iminothiazolidin-4-one]  1900 nM
3. Cc1cc(/C=C2\SC(=S)N(CC(=O)O)C2=O)cc(C)c1O [HBRAA-3,5DM, 5-((4-hydroxy-3,5-dimethylbenzylidene)-4-oxo-2-thioxothiazolidin-3-yl) acetic acid]  1800 nM
4. Cc1cc(C=C2OC(=O)NC2=O)ccc1O [HBO-3M, (4-hydroxy-3-methylbenzylidene)oxazolidine-2,4-dione]  430 nM
5. Cc1cc(C=C2SC(=N)NC2=O)ccc1O [HBP-3M, (4-hydroxy-3-methylbenzylidene)-2-iminothiazolidin-4-one]  220 nM
6. COc1cc(/C=C2\SC(=O)NC2=O)cc(OC)c1O [HBT-3,5DOM, (4-hydroxy-3,5-dimethoxybenzylidene)thiazolidine-2,4-one]  200 nM
7. Cc1cc(C=C2SC(=O)NC2=O)cc(C)c1O [HBT-3,5DM, (4-hydroxy-3,5-dimethylbenzylidene)thiazolidine-2,4-dione]  170 nM
8. Cc1cc(C=C2SC(=N)NC2=O)cc(C)c1O [HBP-3,5DM, (4-hydroxy-3,5-dimethylbenzylidene)-2-iminothiazolidin-4-one]  150 nM
9. COc1cc(C=C2SC(=S)NC2=O)cc(OC)c1O [HBR-3,5DOM, 4-hydroxy-3,5-dimethoxybenzylidene rhodanine]  60 nM
10. COc1cc(C=C2SC(O)=NC2=S)cc(OC)c1O [HBIR-3,5DOM, (4-hydroxy-3,5-dimethoxylbenzylidene)-4-thioxothiazolidin-2-one]  40 nM
11. Cc1cc(C=C2SC(=S)NC2=O)cc(C)c1O [HBR-3,5DM, 4-hydroxy-3,5-dimethylbenzylidene rhodanine]  10 nM
